Here are results for six compounds from US11306064B2, “Benzothia(di)azepine compounds and their use as bile acid modulators” (Albireo AB, priority 2018, dated 2022).

In experiment [1] the target is T1, Human LBAT (Homo sapiens, UniProt Q14973).
T1 construct: expressed in transfected cells; kept under Geneticin selection
T1 sequence (Q14973 1-349): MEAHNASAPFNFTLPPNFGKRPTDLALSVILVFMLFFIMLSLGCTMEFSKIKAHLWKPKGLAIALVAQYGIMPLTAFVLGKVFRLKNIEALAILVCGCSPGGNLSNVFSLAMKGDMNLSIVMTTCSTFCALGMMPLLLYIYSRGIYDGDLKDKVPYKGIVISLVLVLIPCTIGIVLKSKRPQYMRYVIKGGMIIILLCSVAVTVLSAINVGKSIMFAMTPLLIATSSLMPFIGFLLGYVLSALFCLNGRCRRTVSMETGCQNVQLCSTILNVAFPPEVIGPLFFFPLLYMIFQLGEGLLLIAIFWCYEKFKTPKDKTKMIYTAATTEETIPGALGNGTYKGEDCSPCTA
Kind of experiment: LBAT (h/m) assay: 3H-taurocholic acid uptake in human LBAT-overexpressing cells. The class given is cell-based. To be noted: 0.3 μM 3H-taurocholic acid and 7.5 μM cold taurocholic acid, 20 minutes, read-out: hLBAT IC50. Put shortly:
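LBAT-overexpressing cells, serum-free MEM-alpha, 20 min at 37° C with inhibitor (3-fold, 10-point) plus 0.3 μM 3H-taurocholic acid and cold taurocholic acid (7.5 μM human; 25 μM mouse), 0.2% DMSO. Stopped on ice, washed with 1 mM unlabelled taurocholate; uptake by scintillation counting.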

Experiment [2] addresses T2, Human ASBT (Homo sapiens, UniProt Q12908).
T2 construct: expressed in transfected cells; kept under Puromycin selection
T2 sequence (Q12908 1-348): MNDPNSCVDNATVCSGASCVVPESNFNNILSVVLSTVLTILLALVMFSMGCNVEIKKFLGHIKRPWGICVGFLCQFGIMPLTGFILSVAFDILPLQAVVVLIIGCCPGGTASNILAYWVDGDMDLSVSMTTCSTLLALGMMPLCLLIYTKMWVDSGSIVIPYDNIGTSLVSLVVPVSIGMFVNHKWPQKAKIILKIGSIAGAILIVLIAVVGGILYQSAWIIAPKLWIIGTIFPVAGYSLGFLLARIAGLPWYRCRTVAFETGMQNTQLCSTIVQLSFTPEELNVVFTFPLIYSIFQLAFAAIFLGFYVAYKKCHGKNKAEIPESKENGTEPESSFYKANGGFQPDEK
Kind of experiment: ASBT (h/m) assay: 3H-taurocholic acid uptake in human ASBT-overexpressing cells. The class given is cell-based. To be noted: 0.25 μM 3H-taurocholic acid and 5 μM cold taurocholic acid, 20 minutes, read-out: hASBT IC50. The procedure, abridged: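 ASBT-overexpressing cells, seeded 48 h earlier, took up 0.25 µM 3H-taurocholic acid plus 5 µM cold taurocholate for 20 min at 37 °C with inhibitor (10-point 3-fold series, top 10 µM, 0.2% DMSO). Ice stop, washes with cold 1 mM taurocholate in HEPES-HBSS pH 7.4, scintillation counting.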

Regarding `CCCCC1(CC)CN(c2ccccc2)c2cc(Br)c(O/C=C/C(=O)O)cc2S(=O)(=O)C1` (single isomer, unassigned) [Example 6, (E)-3-((7-bromo-3-butyl-3-ethyl-1,1-dioxido-5-phenyl-2,3,4,5-tetrahydro-1,5-benzothiazepin-8-yl)oxy)acrylic acid], the results for the IC50 in experiment [1] and in experiment [2] were 156 nM and 57 nM, respectively.
For `CCCCC1(CC)CN(c2ccccc2)c2cc(SC)c(O/C=C/C(=O)O)cc2S(=O)(=O)C1` (single isomer, unassigned) [Example 18, (E)-3-((3-butyl-3-ethyl-7-(methylthio)-1,1-dioxido-5-phenyl-2,3,4,5-tetrahydro-1,5-benzothiazepin-8-yl)oxy)acrylic acid] the same measures were 80 nM and 19 nM.
For `CCCCC1(CC)CN(c2ccccc2)c2cc(SC)c(O/C=C(\F)C(=O)O)cc2S(=O)(=O)C1` (single isomer, unassigned) [Example 43, (Z)-3-((3-butyl-3-ethyl-7-(methylthio)-1,1-dioxido-5-phenyl-2,3,4,5-tetrahydro-1,5-benzothiazepin-8-yl)oxy)-2-fluoroacrylic acid] the same measures were 8 nM and 21 nM.
On the same counts, the results for `CCCCC1(CC)CN(c2ccccc2)c2cc(Cl)c(O/C=C(\F)C(=O)O)cc2S(=O)(=O)C1` (single isomer, unassigned) [Example 48, (Z)-3-((3-butyl-7-chloro-3-ethyl-1,1-dioxido-5-phenyl-2,3,4,5-tetrahydro-1,5-benzothiazepin-8-yl)oxy)-2-fluoroacrylic acid] are 8.1 nM and 42 nM.
With `CCCCC1(CCCC)CN(c2ccccc2)c2cc(SC)c(O/C=C(\F)C(=O)O)cc2S(=O)(=O)C1` [Example 11, (Z)-3-((3,3-dibutyl-7-(methylthio)-1,1-dioxido-5-phenyl-2,3,4,5-tetrahydro-1,5-benzothiazepin-8-yl)oxy)-2-fluoroacrylic acid], the IC50 (usually the concentration that inhibits the measured activity by half) in experiment [1] is 45 nM; in experiment [2] it was 48 nM.
Regarding `CCC1(CC)CN(c2ccccc2)c2cc(SC)c(O/C=C(\F)C(=O)O)cc2S(=O)(=O)C1` [Example 44, (Z)-3-((3,3-diethyl-7-(methylthio)-1,1-dioxido-5-phenyl-2,3,4,5-tetrahydro-1,5-benzothiazepin-8-yl)oxy)-2-fluoroacrylic Acid], the IC50 is 9.1 nM in experiment [1] and 257 nM in experiment [2].
